Publication doi:10.1101/2024.08.25.609621 (bioRxiv, 2024)
Values joined by “and” are separate entries in the source; they are usually repeats but may differ in a detail not shown here. Identical values can stand only once. Like-named read-outs stand apart in the source and are kept apart here.

Columns and labels:
[1] = target: SARS-CoV-2 NSP3 macrodomain (Mac1) (Severe acute respiratory syndrome coronavirus 2, UniProt P0DTD1); assay: biochemical; assay type: binding; settings: for Hill slope: HTRF dose-response fit, Mac1; for SARS CoV-2 macrodomain HTRF assay: Hillslope: dose-response fit
[2] = target: SARS-CoV-2 NSP3 macrodomain (Mac1), P43 crystal form (Severe acute respiratory syndrome coronavirus 2, UniProt P0DTD1); assay type: binding; settings: for 1-BDC: PanDDA background density correction; for PanDDA run, DMSO background map: 1-BDC / 1-BDC (PanDDA run, DMSO background map): event 1; for Pandda run, overall: Hit / Pandda run, overall: Modeled / Pandda run, overall: Modeling comment / Hit (PanDDA run, overall): P43 crystals; for Total number of conformations: ligand conformations modeled in Mac1 crystal structure; for 2*(1-BDC) (%): occupancy estimate from PanDDA BDC; for X-ray crystallography: Binding site: site where the ligand is bound in the X-ray crystal structure
[3] = crystal soak concentration 10 mM

SMILES | Hill slope [1] | SARS CoV-2 macrodomain HTRF assay: Hillslope [1] | Occupancy difference (refined_occupancy - 2*(1-BDC)) [2] | Refined ligand occupancy (%) [2] [%] | 1-BDC [2] | PanDDA run, DMSO background map: 1-BDC [2, 3] | Pandda run, overall: Hit [2, 3] | Pandda run, overall: Modeled [2, 3] | Pandda run, overall: Modeling comment [2, 3] | PanDDA run, DMSO background map: Hit [2, 3] | PanDDA run, DMSO background map: Modeled [2, 3] | Total number of conformations [2] | 2*(1-BDC) (%) [2] [%] | X-ray crystallography: Binding site [2] | PanDDA run, DMSO background map: 1-BDC [2] | Hit (PanDDA run, overall) ([2]; crystal soak 10 mM) | Hit (PanDDA run, DMSO background map) ([2]; crystal soak 10 mM) | 1-BDC (PanDDA run, DMSO background map) ([2]; crystal soak 10 mM) | Modeling comment (PanDDA run, overall) ([2]; crystal soak 10 mM) | Comment ([2]; comment on ligand modeling / Phe132 loop density)
Cc1c[nH]c2ncnc(NCC3(O)CCOCC3)c12 [AVI-4194, 4-(((5-methyl-7H-pyrrolo[2,3-d]pyrimidin-4-yl)amino)methyl)tetrahydro-2H-pyran-4-ol] | 1.3 | 1.3 | 0 | 18 | 0.09 | 0.13 and 0.09 | TRUE | TRUE | Duplicate, not modeled | TRUE | TRUE | 1 | 18 | Adenosine | – | – | – | – | – | –
Cc1c[nH]c2ncnc(NCC3(O)CCSCC3)c12 [AVI-4195, 4-(((5-methyl-7H-pyrrolo[2,3-d]pyrimidin-4-yl)amino)methyl)tetrahydro-2H-thiopyran-4-ol] | 1.2 | 1.2 | 0 | 28 | 0.14 | 0.14 | TRUE | TRUE | Duplicate, not modeled | TRUE | TRUE | 1 | 28 | Adenosine | – | – | – | – | – | –
CC1CCCC(O)(CNc2ncnc3[nH]ccc23)C1 (stereo not drawn) [AVI-4307] | 1.0 | 1.0 | 0 | 34 | 0.17 | – | – | – | – | – | – | 1 | 34 | Adenosine | 0.26 | TRUE | TRUE | 0.17 | – | –
OC1(CNc2ncnc3[nH]ccc23)CCC(F)(F)CC1 [AVI-4308] | 1.2 | 1.2 | 0 | 30 | 0.15 | – | – | – | – | – | – | 1 | 30 | Adenosine | 0.16 | TRUE | TRUE | 0.15 | – | –
OC1(CNc2ncnc3[nH]ccc23)CCCC(C(F)(F)F)C1 (stereo not drawn) [AVI-4309] | 1.4 | 1.4 | 0 | 40 | 0.2 | – | – | – | – | – | – | 1 | 40 | Adenosine | 0.2 | TRUE | TRUE | 0.21 | – | –
CC1(C)CCC(O)(CNc2ncnc3[nH]ccc23)CC1 [AVI-4310] | 1.3 | 1.3 | – | – | – | – | – | – | – | – | – | – | – | – | 0.17 | TRUE | TRUE | 0.14 | Weak density, not modeled | –
OC1(CNc2ncnc3[nH]ccc23)CCCOC1 (stereo not drawn) [AVI-4311] | 1.4 | 1.4 | 0 | 50 | 0.25 | – | – | – | – | – | – | 1 | 50 | Adenosine | 0.3 | TRUE | TRUE | 0.25 | – | –
CC1CCC(O)(CNc2ncnc3[nH]ccc23)CC1 (stereo not drawn) [AVI-4312] | 1.2 | 1.2 | 0 | 44 | 0.22 | – | – | – | – | – | – | 1 | 44 | Adenosine | 0.22 and 0.3 | – | – | – | – | –
OC1(CNc2ncnc3[nH]ccc23)COC2CC1C2 (stereo not drawn) [AVI-4313] | 1.2 | 1.2 | 0 | 38 | 0.19 | – | – | – | – | – | – | 1 | 38 | Adenosine | 0.19 and 0.2 | – | – | – | – | –
OC1(CNc2ncnc3[nH]ccc23)CCOCC1 [AVI-4314] | 1.2 | 1.2 | 0 | 30 | 0.15 | – | – | – | – | – | – | 1 | 30 | Adenosine | 0.15 and 0.16 | – | – | – | – | –
O=S1(=O)CCCC(O)(CNc2ncnc3[nH]ccc23)C1 (stereo not drawn) [AVI-4317] | 1.2 | 1.2 | 14 | 100 | 0.43 | – | – | – | – | – | – | 1 | 86 | Adenosine | 0.43 and 0.45 | – | – | – | – | High occupancy, use manual refinement, DMSO
CN(CC1(O)CCOCC1)c1ncnc2[nH]ccc12 [AVI-4318] | 1.2 | 1.2 | 0 | 50 | 0.25 | – | – | – | – | – | – | 1 | 50 | Adenosine | 0.26 and 0.25 | – | – | – | – | –
OC1(CNc2ncnc3[nH]ccc23)CCSCC1 [AVI-4319] | 1.2 | 1.2 | 0 | 32 | 0.16 | – | – | – | – | – | – | 1 | 32 | Adenosine | 0.16 and 0.17 | – | – | – | – | –
OC1(CNc2ncnc3[nH]ccc23)CC2CCC1CC2 (stereo not drawn) [AVI-4320] | 1.1 | 1.1 | 0 | 28 | 0.14 | – | – | – | – | – | – | 1 | 28 | Adenosine | 0.14 | – | – | – | – | –
OC1(CNc2ncnc3[nH]ccc23)CCCSC1 (stereo not drawn) [AVI-4322] | 1.3 | 1.3 | 0 | 42 | 0.21 | – | – | – | – | – | – | 1 | 42 | Adenosine | 0.21 | – | – | – | – | –
